Laboratory results published in article PMC5391094, “Characterizing the anti-inflammatory and tissue protective actions of a novel Annexin A1 peptide” (PLoS ONE, 2017).
Where “and” joins values, the source holds several entries; their conditions need not be identical. Identical values can stand only once. Where no end group is shown, it is not given here.

Columns and labels:
human ALX receptor = target: T1, human ALX receptor (Homo sapiens, UniProt P25090); assay: Competitive binding assay with [125I-Tyr]-Ac2-26 tracer on ALX-HEK transfected cells; settings: HEK cells overexpressing human ALX, 1x10^6 cells/ml; tracer 50nM; peptide 0.1nM-10μM; 1h, 4°C; mean of 3-4 independent experiments; read-out: IC50, displacement of 125I labelled Ac2-26 from ALX receptor
T1 construct: expressed in transfected cells; host or cells: HEK cells
T1 sequence (P25090 1-351): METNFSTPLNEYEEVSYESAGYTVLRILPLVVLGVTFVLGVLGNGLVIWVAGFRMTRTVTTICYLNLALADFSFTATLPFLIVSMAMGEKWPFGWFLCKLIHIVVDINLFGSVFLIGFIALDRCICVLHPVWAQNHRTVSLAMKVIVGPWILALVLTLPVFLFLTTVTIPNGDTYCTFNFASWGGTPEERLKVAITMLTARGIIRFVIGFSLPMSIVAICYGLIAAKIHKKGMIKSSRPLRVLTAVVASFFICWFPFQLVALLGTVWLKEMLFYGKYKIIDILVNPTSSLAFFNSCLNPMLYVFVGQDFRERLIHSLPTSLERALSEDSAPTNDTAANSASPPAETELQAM
Procedure: Binding experiments were conducted as in [13]. Briefly FPR1-human embryonic kidney (HEK)–or ALX-HEK—transfected cells (1x10^6 cells/ml) were incubated with increasing concentrations of cold CR-AnxA1_2-50, CR-AnxA1_2-48 (0.1nM-10μM) or PBS and a fixed concentration (50nM) of [^125I-Tyr]-Ac2-26 for (1h, 4°C). Bound and unbound tracer were separated by filtration through Whatman GF/C glass microfibre filters (Kent, United Kingdom) using a vacuum manifold, and the amount of tracer bound to the cells was quantified by counting filters in a gamma-counter.

[1] = tested on: activated human neutrophils; assay: Neutrophil-mediated degradation (peptide remaining in incubations with activated human neutrophils); format: in vitro ADME; settings: incubation with activated human neutrophils; compared to parent peptide CR-AnxA1_2-50; mean ± SEM of n = 4 distinct incubations
Procedure: Therefore, we designed a peptide that in addition to having a substitution of Valine25 to Leucine, which we previously found to confer resistance to proteinease-3 and neutrophil elastae, also lacked Alanines at positions 49 and 50 (Fig 1A).
Fig 1 CR-AnxA1_2-48 is resistant to neutrophil mediated cleavage and selectively binds the ALX receptor. (A) Aminoacid sequences for CR-AnxA1_2–50 and CR-AnxA1_2–48 (B) Plots depicting the amount of peptide remaining at the indicated intervals in incubations of human neutrophil with CR-AnxA1_2–50 or CR-AnxA1_2–48. Results are mean ± SEM of n = 4 distinct incubations with different neutrophil preparations. *p < 0.05 versus AnxA1_2–48 incubations. (C,D) Binding affinity of CR-AnxA1_2–48 to (C) human ALX-overexpressing and (D) FPR1-overexpressing HEK cells was assessed in a competitive binding assay using [^125I]–Ac2-26. (E) Agonist activity of CR-AnxA1_2–48 was investigated using β-arrestin stably expressing FPR2/ALX. Results for C-E are mean ± SEM of 3–4 independent experiments. TEXT PRINTED IN THE PICTURE: (C) CR-ANXA12-48: IC50= 20 nM

ALX = settings: cited from earlier work
Source text: The ALX receptor is a G-protein coupled receptor that mediates the biological actions of a number of pro-resolving molecules including the essential fatty acid derived specialized pro-resolving mediators Resolvin D1, Resolvin D3 and Lipoxin A4 [32].

Row | Substance | IC50 (human ALX receptor) | Resistance to neutrophil mediated cleavage (amount of peptide remaining) [1] | Binding affinity to ALX relative to FPR1 (ALX)
1 | AMVSEFLKQAWFIENEEQEYVQTLKSSKGGPGSAVSPYPTFNPSSDV-NH2 [CR-AnxA1_2-48] | ~20 nM and 20 nM | significant increase in resistance to neutrophil mediated cleavage | –
2 | fMLF | – | – | about a log order lower
